The text below walks through data of patent US6410810B1, “Handling method of (fluoroaryl) borane compound and preparing method of hydrocarbon solution” (Nippon Shokubai Co., Ltd., priority 1997, dated 2002).

The procedure of the series: The cake is analyzed by ^19F-NMR. More specifically, ^19F-NMR is measured under predetermined conditions using p-fluorotoluene as an internal standard reagent. Then, a peak integral of a fluorine atom of p-fluorotoluene, and a peak integral of fluorine atoms at the ortho-position of a pentafluorophenyl group in tris(pentafluorophenyl)borane are computed from the resulting ^19F-NMR chart first, and thence a weight of tris(pentafluorophenyl)borane is computed using the above two peak integrals.
Here, 0.4963 g (purity: 99%, area ratio) of powders of tris(pentafluorophenyl)borane and 16.0878 g of IsoparE are charged to a vessel, in which the air has been displaced by a nitrogen gas satisfactorily, after which the mixture is stirred for 3 hours or so at 28° C. with stirring.
After the solution is cooled to room temperature, the supernatant is analyzed in the same manner as Example 1 above using ^19F-NMR.

Take `Fc1c(F)c(F)c(B(c2c(F)c(F)c(F)c(F)c2F)c2c(F)c(F)c(F)c(F)c2F)c(F)c1F` [tris(pentafluorophenyl)borane]: the “concentration of tris(pentafluorophenyl)borane in supernatant” value is recorded as 0.91 wt % and the “solubility with respect to IsoparE” value is 0.91 wt %. In addition, the “temperature at which completely dissolved into IsoparE” value (0.4963 g powders in 16.0878 g IsoparE, heated) worked out at 87 °C. Further, for the setting “0.4963 g powders in 16.0878 g IsoparE, stirred 3 hours or so at 28° C.”, the “dissolution into IsoparE” value is on record as “does not dissolve into IsoparE completely”. The “purity after dissolving with heating (stability)” value (3 wt %) is on record as 83.0 % (area ratio). Moreover, the “temperature at which the solution starts to crystallize on cooling” value (IsoparE solution allowed to stand and cooled) was determined as 63 °C.
